Measured values taken from DBAASP.
Values after ≈ are worked out from the molar mass of the structure shown.

How the values were obtained:
Test in all cases: ≥ marks a high value that may be exact or a test limit, other limits are often not marked, values filed in µg/mL are converted to µM
[1] = test system: Candida albicans ATCC 2002
[2] = test system: Staphylococcus aureus ATCC 2592
[3] = test system: Escherichia coli ATCC 25922
[4] = test system: Pseudomonas aeruginosa ATCC 9027
[5] = test system: Pseudomonas aeruginosa CMCCB 10104
[6] = test system: Staphylococcus aureus ATCC 25923
Escherichia coli JW0013 = test system: Escherichia coli JW0013
Bacillus subtilis = test system: Bacillus subtilis
Escherichia coli UB1005 = test system: Escherichia coli UB1005
[7] = test system: Pseudomonas aeruginosa PAO1

SMILES | MIC [1] [µM] | MIC [3] [µM] | MIC [6] [µM] | MIC (Escherichia coli JW0013) [µM] | other results
CC(C)C[C@H](NC(=O)[C@H](CC(C)C)NC(=O)[C@H](Cc1ccccc1)NC(=O)[C@@H]1CCCN1C(=O)[C@H](CC(C)C)NC(=O)[C@@H](N)Cc1ccccc1)C(=O)N[C@@H](CO)C(=O)N[C@@H](C)C(=O)N[C@@H](CC(C)C)C(=O)N1CCC[C@H]1C(=O)N[C@@H](CCCCN)C(=O)N[C@H](C(=O)N[C@@H](Cc1ccccc1)C(=O)N[C@H]1CSSC[C@@H](C(=O)O)NC(=O)[C@H](CCCCN)NC(=O)[C@H](CCCCN)NC(=O)[C@H](CO)NC(=O)[C@H](Cc2ccccc2)NC(=O)[C@H](Cc2ccccc2)NC1=O)C(C)C [FLPFLLSALPKVFCFFSKKC] | ≥ 43 | 16 (≈ 37.3 µg/mL) |  |  | MIC [2]: 8 µM (≈ 18.7 µg/mL); MIC [4]: 32 µM (≈ 74.7 µg/mL)
CC[C@H](C)[C@H](NC(=O)CN)C(=O)N[C@@H](CC(C)C)C(=O)NCC(=O)N[C@@H](CC(N)=O)C(=O)N[C@H](C(=O)N[C@H](C(=O)NCC(=O)N[C@@H](CCSC)C(=O)NCC(=O)N[C@@H](CCCCN)C(=O)N[C@@H](CCC(N)=O)C(=O)N[C@H](C(=O)N[C@H](C(=O)N[C@H]1CSSC[C@@H](C(=O)O)NC(=O)[C@H](CC(C)C)NC(=O)CNC(=O)[C@H](CO)NC(=O)[C@H](CC(C)C)NC(=O)CNC1=O)C(C)C)C(C)C)C(C)C)[C@@H](C)CC [GILGNIVGMGKQVVCGLSGLC] | 2.53 (≈ 5.1 µg/mL) | 2.53 (≈ 5.1 µg/mL) | 2.53 (≈ 5.1 µg/mL) |  | MIC [5]: 5.05 µM (≈ 10.2 µg/mL)
CC[C@H](C)[C@H](NC(=O)CNC(=O)[C@H](CO)NC(=O)[C@H](CC(C)C)NC(=O)[C@@H](NC(=O)CN)[C@@H](C)CC)C(=O)N[C@@H](CC(C)C)C(=O)NCC(=O)N[C@H](C(=O)NCC(=O)N[C@@H](CCCCN)C(=O)N[C@@H](CCCCN)C(=O)N[C@@H](CC(C)C)C(=O)N[C@H](C(=O)N[C@H]1CSSC[C@@H](C(=O)O)NC(=O)[C@H](CC(C)C)NC(=O)CNC(=O)[C@H](CO)NC(=O)[C@H](CC(C)C)NC(=O)CNC1=O)C(C)C)C(C)C [GILSGILGVGKKLVCGLSGLC] | 5.79 (≈ 11.5 µg/mL) | 5.79 (≈ 11.5 µg/mL) | 2.92 (≈ 5.79 µg/mL) |  | MIC [5]: 11.6 µM (≈ 23 µg/mL)
CC[C@H](C)[C@H](NC(=O)CNC(=O)[C@H](CCCCN)NC(=O)CNC(=O)[C@H](C)NC(=O)[C@H](Cc1ccccc1)NC(=O)[C@H](CCCCN)NC(=O)[C@H](CO)NC(=O)[C@H](Cc1ccccc1)NC(=O)[C@H](CC(C)C)NC(=O)CN)C(=O)N[C@@H](CCCCN)C(=O)N[C@@H](CC(N)=O)C(=O)N[C@@H](Cc1ccccc1)C(=O)N[C@@H](CC(C)C)C(=O)N[C@H](C(=O)N[C@@H](CCCCN)C(=O)NCC(=O)N[C@H](C(=O)N[C@@H](CCCCN)C(=O)N[C@@H](Cc1cnc[nH]1)C(=O)N[C@H](C(=O)NCC(=O)N[C@@H](CCCCN)C(=O)N[C@@H](CCC(=O)O)C(=O)N[C@H](C(=O)NCC(=O)N[C@@H](CCSC)C(=O)N[C@@H](CC(=O)O)C(=O)N[C@H](C(=O)N[C@H](C(=O)N[C@@H](CCCN=C(N)N)C(=O)N[C@H](C(=O)NCC(=O)N[C@H](C(=O)N[C@@H](CC(=O)O)C(=O)N[C@H](C(=O)N[C@@H](C)C(=O)NCC(=O)N[C@H]1CSSC[C@@H](C(=O)O)NC(=O)[C@H](CCC(=O)O)NC(=O)CNC(=O)[C@H](CCCCN)NC(=O)[C@H]([C@@H](C)CC)NC(=O)[C@H](CCCCN)NC1=O)C(C)C)[C@@H](C)CC)[C@@H](C)O)[C@@H](C)CC)C(C)C)C(C)C)[C@@H](C)CC)C(C)C)[C@@H](C)CC [GLFSKFAGKGIKNFLIKGVKHIGKEVGMDVIRTGIDVAGCKIKGEC] | 0.349 (≈ 1.7 µg/mL) | 0.699 (≈ 3.4 µg/mL) | 0.349 (≈ 1.7 µg/mL) |  | MIC [5]: 0.699 µM (≈ 3.4 µg/mL)
CC[C@H](C)[C@H](NC(=O)[C@H](CCCN=C(N)N)NC(=O)[C@H](CCCN=C(N)N)NC(=O)[C@@H]1CCCN1C(=O)[C@@H]1CCCN1C(=O)[C@H](CCCN=C(N)N)NC(=O)[C@@H]1CCCN1C(=O)[C@H](CCCN=C(N)N)NC(=O)[C@@H]1CCCN1C(=O)[C@H](CC(C)C)NC(=O)[C@H](Cc1ccc(O)cc1)NC(=O)[C@@H]1CCCN1C(=O)[C@@H]1CCCN1C(=O)[C@H](CCCCN)NC(=O)[C@H](CC(=O)O)NC(=O)[C@@H]1CCCN1)C(=O)N[C@@H](Cc1ccc(O)cc1)C(=O)N[C@@H](CC(N)=O)C(=O)N[C@@H](CCCN=C(N)N)C(N)=O [PDKPPYLPRPRPPRRIYNR] |  |  |  | 2.01 (≈ 4.8 µg/mL) | 
CC[C@H](C)[C@H](NC(=O)[C@H](CCC(N)=O)NC(=O)[C@H](CCCCN)NC(=O)[C@H](Cc1c[nH]c2ccccc12)NC(=O)[C@H](CC(C)C)NC(=O)[C@H](CCC(N)=O)NC(=O)[C@@H]1CCCN1C(=O)[C@H](CC(C)C)NC(=O)[C@H](CCCCN)NC(=O)[C@H](C)NC(=O)[C@H](CCC(=O)O)NC(=O)[C@H](CCCCN)NC(=O)[C@@H](NC(=O)CNC(=O)[C@@H](NC(=O)[C@@H](NC(=O)[C@@H](NC(=O)[C@@H](N)CO)[C@@H](C)CC)[C@@H](C)CC)[C@@H](C)O)[C@@H](C)O)C(=O)N[C@@H](C)C(=O)N[C@H]1CSSC[C@@H](C(=O)O)NC(=O)[C@H]([C@@H](C)O)NC(=O)[C@H](CC(N)=O)NC(=O)[C@H](Cc2ccc(O)cc2)NC(=O)[C@H](CC(C)C)NC(=O)[C@H](CCCN=C(N)N)NC1=O [SIITGTKEAKLPQLWKQIACRLYNTC] | 10.1 (≈ 30 µg/mL) | 20.1 (≈ 60 µg/mL) |  |  | MIC (Bacillus subtilis): ≥ 40.3 µM; MIC [2]: 5.03 µM (≈ 15 µg/mL)
CC[C@H](C)[C@H](NC(=O)[C@H](CCCN=C(N)N)NC(=O)[C@H](CCCN=C(N)N)NC(=O)[C@@H]1CCCN1C(=O)[C@@H]1CCCN1C(=O)[C@H](CCCN=C(N)N)NC(=O)[C@H](CCCCN)NC(=O)[C@H](CCCN=C(N)N)NC(=O)[C@@H]1CCCN1C(=O)[C@H](CC(C)C)NC(=O)[C@H](CCCN=C(N)N)NC(=O)[C@@H]1CCCN1C(=O)[C@H](CCCCN)NC(=O)[C@H](CCCCN)NC(=O)[C@H](CC(=O)O)NC(=O)[C@@H](N)C(C)C)C(=O)N[C@@H](Cc1ccc(O)cc1)C(=O)N[C@@H](CC(N)=O)C(=O)N[C@@H](CCCN=C(N)N)C(N)=O [VDKKPRLPRKRPPRRIYNR] |  |  |  | 0.695 (≈ 1.7 µg/mL) | 
CC[C@H](C)[C@H](NC(=O)[C@H](CCCN=C(N)N)NC(=O)[C@H](CCCN=C(N)N)NC(=O)[C@@H]1CCCN1C(=O)[C@@H]1CCCN1C(=O)[C@H](CCCN=C(N)N)NC(=O)[C@@H]1CCCN1C(=O)[C@H](CCCN=C(N)N)NC(=O)[C@@H]1CCCN1C(=O)[C@H](CC(C)C)NC(=O)[C@@H](NC(=O)[C@@H]1CCCN1C(=O)[C@@H]1CCCN1C(=O)[C@H](CCCCN)NC(=O)[C@H](CC(=O)O)NC(=O)[C@@H](N)C(C)C)C(C)C)C(=O)N[C@@H](Cc1ccc(O)cc1)C(=O)N[C@@H](CC(N)=O)C(=O)N[C@@H](CCCN=C(N)N)C(N)=O [VDKPPVLPRPRPPRRIYNR] |  |  |  | 2.06 (≈ 4.8 µg/mL) | 
CC[C@H](C)[C@H](NC(=O)[C@H](CCCN=C(N)N)NC(=O)[C@H](CCCN=C(N)N)NC(=O)[C@@H]1CCCN1C(=O)[C@@H]1CCCN1C(=O)[C@H](CCCN=C(N)N)NC(=O)[C@H](Cc1ccccc1)NC(=O)[C@H](CCCN=C(N)N)NC(=O)[C@@H]1CCCN1C(=O)[C@H](CC(C)C)NC(=O)[C@H](Cc1ccc(O)cc1)NC(=O)[C@@H]1CCCN1C(=O)[C@@H]1CCCN1C(=O)[C@H](CCCCN)NC(=O)[C@H](CC(=O)O)NC(=O)[C@@H](N)C(C)C)C(=O)N[C@@H](Cc1ccc(O)cc1)C(=O)N[C@@H](CC(N)=O)C(=O)N[C@@H](CCCN=C(N)N)C(N)=O [VDKPPYLPRFRPPRRIYNR] |  |  |  | 1.97 (≈ 4.8 µg/mL) | 
CC[C@H](C)[C@H](NC(=O)[C@H](CCCN=C(N)N)NC(=O)[C@H](CCCN=C(N)N)NC(=O)[C@@H]1CCCN1C(=O)[C@@H]1CCCN1C(=O)[C@H](CCCN=C(N)N)NC(=O)[C@H](CCCCN)NC(=O)[C@H](CCCN=C(N)N)NC(=O)[C@@H]1CCCN1C(=O)[C@H](CCCN=C(N)N)NC(=O)[C@H](Cc1ccc(O)cc1)NC(=O)[C@@H]1CCCN1C(=O)[C@H](CCCN=C(N)N)NC(=O)[C@H](CCCCN)NC(=O)[C@H](CC(=O)O)NC(=O)[C@@H](N)C(C)C)C(=O)N[C@@H](Cc1ccc(O)cc1)C(=O)N[C@@H](CC(N)=O)C(=O)N[C@@H](CCCN=C(N)N)C(N)=O [VDKRPYRPRKRPPRRIYNR] |  |  |  | 0.951 (≈ 2.4 µg/mL) | 
CC[C@H](C)[C@H](NC(=O)[C@H](CCCN=C(N)N)NC(=O)[C@H](CCCN=C(N)N)NC(=O)[C@@H]1CCCN1C(=O)[C@@H]1CCCN1C(=O)[C@H](CCCN=C(N)N)NC(=O)[C@@H]1CCCN1C(=O)[C@H](CCCN=C(N)N)NC(=O)[C@@H]1CCCN1C(=O)[C@H](CC(C)C)NC(=O)[C@H](Cc1ccc(O)cc1)NC(=O)[C@@H]1CCCN1C(=O)[C@@H]1CCCN1C(=O)[C@H](CCCCN)NC(=O)[C@H](CC(N)=O)NC(=O)[C@@H](N)C(C)C)C(=O)N[C@@H](Cc1ccc(O)cc1)C(=O)N[C@@H](CC(N)=O)C(=O)N[C@@H](CCCN=C(N)N)C(N)=O [VNKPPYLPRPRPPRRIYNR] |  |  |  | 2.01 (≈ 4.8 µg/mL) | 
CC[C@H](C)[C@H](NC(=O)[C@H](CCCN=C(N)N)NC(=O)[C@H](CCCN=C(N)N)NC(=O)[C@@H]1CCCN1C(=O)[C@@H]1CCCN1C(=O)[C@H](CCCN=C(N)N)NC(=O)[C@@H]1CCCN1C(=O)[C@H](CCCN=C(N)N)NC(=O)[C@@H]1CCCN1C(=O)[C@H](CC(C)C)NC(=O)[C@H](Cc1ccc(O)cc1)NC(=O)[C@@H]1CCCN1C(=O)[C@@H]1CCCN1C(=O)[C@H](CCCCN)NC(=O)[C@H](CCCN=C(N)N)NC(=O)[C@@H](N)C(C)C)C(=O)N[C@@H](Cc1ccc(O)cc1)C(=O)N[C@@H](CC(N)=O)C(=O)N[C@@H](CCCN=C(N)N)C(N)=O [VRKPPYLPRPRPPRRIYNR] |  |  | 1.64 (≈ 4 µg/mL) | 1.36 (≈ 3.3 µg/mL) | MIC (Escherichia coli UB1005): 0.247 µM (≈ 0.6 µg/mL); MIC [7]: 26.3 µM (≈ 64 µg/mL)
